Test results from ChEMBL document CHEMBL4393693, “Synthesis and Structure-Activity relationship of 1-(5-isoquinolinesulfonyl)piperazine analogues as inhibitors of Mycobacterium tuberculosis IMPDH” (Eur J Med Chem, 2019).

Legend:
[1] = tested on: Mycobacterium tuberculosis; assay: Antimycobacterial activity against Mycobacterium tuberculosis H37Rv SRMV2.6 harboring GuaB2 Tyr487Cys mutant assessed as reduction in bacterial cell growth incubated for 3 to 4 weeks by alamar blue fluorescence based broth microdilution assay; format: functional
[2] = Selective ratio of inhibition of GuaB2 Tyr487Cys mutant in Mycobacterium tuberculosis H37Rv SRMV2.6 to inhibition of wild type GuaB2 in Mycobacterium tuberculosis H37Rv

SMILES: COc1cccc(CNC(=O)N2CCN(S(=O)(=O)c3cccc4cnccc34)CC2)c1
- MIC90 [1]: >100 µM

SMILES: CC1CCCCC1C(=O)N1CCN(S(=O)(=O)c2cccc3cnccc23)CC1 (configuration not stated)
- Ratio [2]: 16 to 32

SMILES: O=C(C1CCCCC1)N1CCN(S(=O)(=O)c2cccc3cnccc23)CC1
- Ratio [2]: 32

SMILES: O=C(Nc1ccc2c(c1)OCO2)N1CCN(S(=O)(=O)c2cccc3cnccc23)CC1
- Ratio [2]: 4

SMILES: Cc1ccccc1CNC(=O)N1CCN(S(=O)(=O)c2cccc3cnccc23)CC1
- Ratio [2]: 16 to 32

SMILES: O=C(Nc1ccc2c(c1)OCO2)N1CCCN(S(=O)(=O)c2cccc3cnccc23)CC1
- Ratio [2]: 8 to 16

SMILES: CC1CN(S(=O)(=O)c2cccc3cnccc23)CCN1C(=O)Nc1ccc2c(c1)OCO2 (configuration not stated)
- Ratio [2]: 8 to 16
